Source: US9309179B2 (FAB PHARMA S.A.S., priority 2006, dated 2016)
Values after ≈ are worked out from the molar mass of the structure shown. Structures can show the parent of a compound that is named as a salt. Where two headings read alike, the source gives them in different places.

Assays:
E. coli CIP 76.24 = experiment: MIC, broth microdilution; type: cell-based; settings: Escherichia coli, read-out: MIC E. coli CIP 76.24
Procedure: (§1) The compounds of the present invention are useful antibacterial agents having a selective spectrum of activity in vitro against standard bacterial strains which are used to screen for activity against pathogenic bacteria. […] The activity is presented as Minimum Inhibitory Concentration (MIC) expressed in μg/ml.
(§2) Whole-cell antimicrobial activity was determined by broth microdilution method in microtiterplates. The compound was tested in serial 4-fold dilutions ranging from 0.06 to 64 mcg/mL. Test organisms were selected from the following laboratory strains: Staphylococcus aureus CIP 76.25, Staphylococcus aureus BAA39 MDR, Staphylococcus aureus NEM 14157 PeniR, Staphylococcus aureus CIP 54.146, Escherichia coli CIP 76.24. Bacteria were tested in Tryptic Soy (TS) or Mueller Hinton (MH) broth using an inoculum of 10^4 to 10^6 UFC/mL incubated at 37° C. for 20 h.
(§3) The minimum inhibitory concentration (MIC) was determined as the lowest concentration of compound at which no visible bacteria growth is observed (90% inhibition of absorbance of at […].)

S. aureus BAA39MDR = experiment: MIC, broth microdilution; type: cell-based; settings: Staphylococcus aureus, 20 h, read-out: MIC S. aureus BAA39MDR
Procedure: as §1, §2, §3

S. aureus CIP 76.25 = experiment: MIC, broth microdilution; type: cell-based; settings: Staphylococcus aureus, read-out: MIC S. aureus CIP 76.25
Procedure: as §1, §2, §3

S. aureus NEM14157 = experiment: MIC, broth microdilution; type: cell-based; settings: Staphylococcus aureus, read-out: MIC S. aureus NEM14157
Procedure: as §1, §2, §3

[1] = molecular target: T1, recombinant E. coli FabI enzyme (Escherichia coli, UniProt P0AEK4); experiment: FabI inhibition, fluorescence-based NADH assay; type: biochemical
T1 construct: 6-His (C); made in house; host or cells: prokaryotic expression vector
T1 sequence (P0AEK4 whole entry): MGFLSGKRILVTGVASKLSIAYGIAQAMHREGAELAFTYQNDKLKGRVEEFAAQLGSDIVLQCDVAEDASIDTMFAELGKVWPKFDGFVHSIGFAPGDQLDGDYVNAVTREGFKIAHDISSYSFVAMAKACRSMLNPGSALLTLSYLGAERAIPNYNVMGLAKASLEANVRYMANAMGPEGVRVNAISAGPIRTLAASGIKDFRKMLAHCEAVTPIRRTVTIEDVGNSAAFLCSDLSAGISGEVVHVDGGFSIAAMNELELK
Procedure: Compound inhibitory activity of FabI enzyme is measured in vitro by the IC50 determination using a fluorescent based assay.
The protein FabI from E. coli is prepared and purified using standard methods for recombinant protein expression after cloning of the gene in a prokaryotic expression vector.
The biochemical activity of the FabI enzyme is assessed using the following method.
The assay buffer “AB” contains 50 mM Hepes pH7.5, 100 μM Dithiothreitol, 0.006% Triton-X100. The following components are added in a black polystyrene Costar plate up to a final volume of 55 μL: 1.5 μL DMSO, or inhibitor dissolved in DMSO and 53.5 μL of a FabI/NADH/NAD+ mixture in AB. After 60 min of pre-incubation at room temperature, the reaction is started by addition of 5 μL of Crotonoyl-CoA to a final volume of 60 μL. This reaction mixture is then composed of 40 nM FabI (produced in house from E. coli, C-terminal 6-His tagged), 20 μM NADH (Biochemika), 10 μM NAD+ (Biochemika), 50 μM Crotonoyl-CoA (Biochemika) and compound at defined concentration. Fluorescence intensity of NADH (lex=360 nm, lem=520 nm) is measured immediately after Crotonoyl-CoA addition, and 2 hours later by a Fluostar Optima (BMG). Enzyme activity is proportional to the signal decrease from which inhibition percentages are derived. For IC50 determinations, the inhibitor is tested at 6 to 10 different concentrations, and the related inhibitions are fitted to a classical langmuir equilibrium model using XLFIT (IDBS).
In Vitro Inhibition of Recombinant E. coli FabI Enzyme by Selected Compounds of Formula (I).

[2] = CIP76, broth microdilution, 37° C., 20 h
[3] = NEM14157, broth microdilution, 37° C., 20 h
[4] = recombinant E. coli FabI 40 nM, 60 min pre-incubation, NADH fluorescence, read-out: IC50

SMILES | MIC (E. coli CIP 76.24; [2]) | MIC (S. aureus BAA39MDR; broth microdilution, 37° C.) | MIC (S. aureus CIP 76.25; [2]) | MIC (S. aureus NEM14157; [3]) | further results
CCCc1ccc(Oc2nc(Cl)ccc2N)c(O)c1 [Example 1, 2-[(3-amino-6-chloropyridin-2-yl)oxy]-5-propylphenol] | 16 µg/mL (≈ 57.4 µM) | 1 µg/mL (≈ 3.59 µM) | 1 µg/mL (≈ 3.59 µM) | 0.25 µg/mL (≈ 0.897 µM) | 
CCc1ccc(Oc2cccc(F)n2)c(O)c1 [Example 3, 5-ethyl-2-[(6-fluoropyridin-2-yl)oxy]phenol] | 4 µg/mL (≈ 17.1 µM) | 0.25 µg/mL (≈ 1.07 µM) | 0.25 µg/mL (≈ 1.07 µM) | 0.25 µg/mL (≈ 1.07 µM) | 
CCCc1ccc(Oc2cccc(F)n2)c(O)c1 [Example 5, 2-[(6-fluoropyridin-2-yl)oxy]-5-propylphenol] | 4 µg/mL (≈ 16.2 µM) | 0.25 µg/mL (≈ 1.01 µM) | 0.25 µg/mL (≈ 1.01 µM) | 0.25 µg/mL (≈ 1.01 µM) | IC50 [1, 4]: 970 nM
CCCc1ccc(Oc2cccc(Cl)n2)c(O)c1 [Example 6, 2-[(6-chloropyridin-2-yl)oxy]-5-propylphenol] | 16 µg/mL (≈ 60.7 µM) | 1 µg/mL (≈ 3.79 µM) | 1 µg/mL (≈ 3.79 µM) | 1 µg/mL (≈ 3.79 µM) | 
CCCc1ccc(Oc2cccc(N)n2)c(O)c1 [Example 7, 2-[(6-aminopyridin-2-yl)oxy]-5-propylphenol] | > 16 µg/mL |  | 2 µg/mL (≈ 8.19 µM) |  | 
CCCc1ccc(Oc2ccc(OC)cc2)c(O)c1 [Example 16, 2-(4-methoxyphenoxy)-5-propylphenol] | 4 µg/mL (≈ 15.5 µM) | 0.25 µg/mL (≈ 0.968 µM) | 0.25 µg/mL (≈ 0.968 µM) | 0.25 µg/mL (≈ 0.968 µM) | IC50 [1]: 510 nM
CCCc1ccc(Oc2cc(F)nc(F)c2)c(O)c1 [Example 25B, 2-[(2,6-difluoropyridin-4-yl)oxy]-5-propylphenol] | 4 µg/mL (≈ 15.1 µM) | 0.062 µg/mL (≈ 0.234 µM) | 0.062 µg/mL (≈ 0.234 µM) | 0.062 µg/mL (≈ 0.234 µM) | IC50 [1]: 570 nM
Oc1cc(CC(F)(F)F)ccc1Oc1cccc(F)n1 [Example 27, 2-[(6-fluoropyridin-2-yl)oxy]-5-(2,2,2-trifluoroethyl)phenol] | 4 µg/mL (≈ 13.9 µM) | 0.25 µg/mL (≈ 0.87 µM) | 0.25 µg/mL (≈ 0.87 µM) | 0.25 µg/mL (≈ 0.87 µM) | IC50 [1, 4]: 470 nM
Oc1cc(C(F)=C(F)F)ccc1Oc1cccc(F)n1 [Example 28, 2-[(6-fluoropyridin-2-yl)oxy]-5-(trifluorovinyl) phenol] |  |  |  |  | IC50 [1, 4]: 850 nM
CCc1ccc(Oc2ccc(C(C)=O)cc2F)c(O)c1 [Example 29, 1-[4-(4-ethyl-2-hydroxyphenoxy)-3-fluorophenyl]ethanone] | 1 µg/mL (≈ 3.65 µM) | 0.062 µg/mL (≈ 0.226 µM) | 0.062 µg/mL (≈ 0.226 µM) | 0.062 µg/mL (≈ 0.226 µM) | IC50 [1]: 150 nM
CCc1ccc(Oc2ccc(NCCCCO)cc2F)c(O)c1 [Example 37, 5-ethyl-2-{2-fluoro-4-[(4-hydroxybutyl)amino]phenoxy}phenol] | 4 µg/mL (≈ 12.5 µM) | 0.25 µg/mL (≈ 0.783 µM) | 0.062 µg/mL (≈ 0.194 µM) | 0.25 µg/mL (≈ 0.783 µM) | IC50 [1]: 410 nM
CCc1ccc(Oc2ccc(OCCCN)cc2F)c(O)c1 [Example 39, 2-[4-(3-aminopropoxy)-2-fluorophenoxy]-5-ethyl phenol] |  |  |  |  | MIC (E. coli CIP 76.24; CIP76, 20 h): 16 µg/mL (≈ 52.4 µM); MIC (S. aureus BAA39MDR): 1 µg/mL (≈ 3.27 µM); MIC (S. aureus CIP 76.25; CIP76, 20 h): 1 µg/mL (≈ 3.27 µM); MIC (S. aureus NEM14157; NEM14157, 20 h): 1 µg/mL (≈ 3.27 µM)
CCc1ccc(Oc2cc(F)ccc2N)c(O)c1 [Example 50, 2-(2-amino-5-fluorophenoxy)-5-ethylphenol] |  |  |  |  | IC50 [1, 4]: 300 nM
CCCc1ccc(Oc2cccnc2N)c(O)c1 [Example 55, 2-(2-Aminopyridin-3-yloxy)-5-propylphenol] | 1 µg/mL (≈ 4.09 µM) |  | 0.25 µg/mL (≈ 1.02 µM) |  | IC50 [1]: 92 nM
CCc1cc(O)c(Oc2cccc(F)n2)cc1F [Example 57] | 4 µg/mL (≈ 15.9 µM) |  | 0.25 µg/mL (≈ 0.995 µM) |  | IC50 [1]: 1100 nM
CCc1ccc(Oc2ccc(C(C)=O)cc2F)c(OC(=O)CN)c1 [Example 85, acetate hydrochloride] |  |  |  |  | IC50 [1, 4]: 110 nM; MIC (E. coli CIP 76.24; CIP76, 20 h): 1 µg/mL; MIC (S. aureus CIP 76.25; CIP76, 20 h): 0.062 µg/mL
Oc1cc(Cl)ccc1Oc1ccc(Cl)cc1Cl [Triclosan, 5-chloro-2-(2,4-dichloro-phenoxy)-phenol, reference compound] |  |  |  |  | MIC (E. coli CIP 76.24; CIP76, 20 h): 0.25 µg/mL (≈ 0.863 µM); MIC (S. aureus CIP 76.25; CIP76, 20 h): 0.125 µg/mL (≈ 0.432 µM)

Now from value to molecule, other results behind:

MIC (E. coli CIP 76.24; [2]) | MIC (S. aureus BAA39MDR; broth microdilution, 37° C.) | MIC (S. aureus CIP 76.25; [2]) | MIC (S. aureus NEM14157; [3]) | SMILES | further results
16 µg/mL (≈ 60.3 µM) |  | 0.25 µg/mL (≈ 0.942 µM) |  | CCCc1ccc(Oc2cc(F)cc(F)n2)c(O)c1 [Example 25A, 2-[(4,6-difluoropyridin-2-yl)oxy]-5-propylphenol] | 
16 µg/mL (≈ 55.9 µM) |  | 4 µg/mL (≈ 14 µM) |  | Oc1cc(Cn2cncn2)ccc1Oc1cccc(F)n1 [Example 32, 2-[(6-fluoropyridin-2-yl)oxy]-5-(1H-1,2,4-triazol-1-ylmethyl)phenol] | 
1 µg/mL (≈ 4.36 µM) | 0.25 µg/mL (≈ 1.09 µM) | 0.25 µg/mL (≈ 1.09 µM) | 0.25 µg/mL (≈ 1.09 µM) | CCc1ccc(Oc2ccccc2N)c(O)c1 [Example 34, 2-(2-aminophenoxy)-5-ethylphenol] | 
4 µg/mL (≈ 9.19 µM) | 0.25 µg/mL (≈ 0.574 µM) | 0.062 µg/mL (≈ 0.142 µM) | 1 µg/mL (≈ 2.3 µM) | CCc1ccc(Oc2ccc(OCCCN3C(=O)c4ccccc4C3=O)cc2F)c(O)c1 [Example 38, 2-{3-[4-(4-Ethyl-2-hydroxy-phenoxy)-3-fluoro-phenoxy]-propyl}-isoindole-1,3-dione] | 
16 µg/mL (≈ 54.7 µM) |  | 0.25 µg/mL (≈ 0.855 µM) |  | CCc1ccc(Oc2ccc(S(C)(=O)=O)cc2)c(O)c1 [Example 47, 5-ethyl-2-[4-(methylsulfonyl)phenoxy]phenol] | 
16 µg/mL (≈ 45.5 µM) |  | 1 µg/mL (≈ 2.85 µM) |  | CCc1ccc(Oc2ccc(NS(=O)(=O)C3CC3)cc2F)c(O)c1 [Example 52, N-[4-(4-ethyl-2-hydroxyphenoxy)-3-fluorophenyl]cyclopropane sulfonamide] | 
4 µg/mL (≈ 16.2 µM) |  | 0.25 µg/mL (≈ 1.01 µM) |  | CCc1cc(O)c(Oc2ccc(N)cc2)cc1F [Example 62, 2-(4-aminophenoxy)-5-ethyl-4-fluorophenol] | 
1 µg/mL (≈ 3.21 µM) |  | 0.25 µg/mL (≈ 0.803 µM) |  | CCc1ccc(Oc2ccc(S(N)(=O)=O)cc2F)c(O)c1 [Example 65, 4-(4-ethyl-2-hydroxyphenoxy)-3-fluorobenzene sulfonamide] | 
16 µg/mL (≈ 47.3 µM) |  | 0.25 µg/mL (≈ 0.739 µM) |  | CCc1ccc(Oc2ccc(NCc3cccnc3)cc2F)c(O)c1 [Example 66, 5-ethyl-2-{2-fluoro-4-[(pyridin-3-ylmethyl)amino]phenoxy}phenol] | 
16 µg/mL (≈ 45 µM) |  | 0.25 µg/mL (≈ 0.703 µM) |  | CCc1ccc(Oc2ccc(S(=O)(=O)NCCO)cc2F)c(O)c1 [Example 67, 4-(4-ethyl-2-hydroxyphenoxy)-3-fluoro-N-(2-hydroxyethyl)benzenesulfonamide] | 
16 µg/mL (≈ 40.4 µM) |  | 0.25 µg/mL (≈ 0.631 µM) |  | CCc1ccc(Oc2ccc(S(=O)(=O)NCCNC(C)=O)cc2F)c(O)c1 [Example 70, N-{2-[4-(4-Ethyl-2-hydroxy-phenoxy)-3-fluoro-benzenesulfonylamino]-ethyl}-acetamide] | 
4 µg/mL (≈ 12 µM) | 0.062 µg/mL (≈ 0.185 µM) | 0.062 µg/mL (≈ 0.185 µM) | 0.062 µg/mL (≈ 0.185 µM) | CCc1ccc(Oc2ccc(OCCCC(=O)O)cc2F)c(O)c1 [Example 74, 4-[4-(4-Ethyl-2-hydroxy-phenoxy)-3-fluoro-phenoxy]-butyric acid] | 
16 µg/mL (≈ 41.8 µM) | 0.25 µg/mL (≈ 0.654 µM) | 0.25 µg/mL (≈ 0.654 µM) | 0.25 µg/mL (≈ 0.654 µM) | CCc1ccc(Oc2ccc(NCCCNS(C)(=O)=O)cc2F)c(O)c1 [Example 79, N-methanesulfonyl-N-1-[4-(4-ethyl-2-hydroxyphenoxy)-3-fluorophenyl]propan-1,3-diamine] | 
4 µg/mL (≈ 13.7 µM) |  | 0.25 µg/mL (≈ 0.858 µM) |  | CCc1ccc(Oc2ccc(NCCO)cc2F)c(O)c1 [Example 81, 5-Ethyl-2-[2-fluoro-4-(2-hydroxyethylamino)-phenoxy]phenol] | 
16 µg/mL (≈ 55.3 µM) |  | 0.25 µg/mL (≈ 0.864 µM) |  | CCCNc1ccc(Oc2ccc(CC)cc2O)c(F)c1 [Example 82, 5-ethyl-2-[2-fluoro-4-(propylamino)phenoxy]phenol] | 
4 µg/mL (≈ 13.3 µM) | 0.062 µg/mL (≈ 0.206 µM) | 0.062 µg/mL (≈ 0.206 µM) | 0.062 µg/mL (≈ 0.206 µM) | CCc1ccc(Oc2ccc(C(=O)CCCO)cc2)c(O)c1 [Example 86, 1-[4-(4-ethyl-2-hydroxyphenoxy)phenyl]-4-hydroxy butan-1-one] | 
